Like-named read-outs stand apart in the source and are kept apart here.
Columns and labels:
[1] = system: E2F transcription factors; experiment: E2F reporter gene assay (A549-derived luciferase reporter cell line); assay type: cell-based; conditions: Homo sapiens
Protocol: A similar system to the p53 reporter assay described above was used, with the exception that it was designed to be responsive to E2F transcription factors rather than p53. An A549-derived cell line stably transfected with an E2F response element and a luciferase reporter gene was created. The genetic expression cassette construct used was from Clontech (Mercury™ Cell Cycle Profiling System). Assays were carried out as described above.
Representative bisarylsulfonamides were tested in the E2F gene reporter assay described in Example 6.

Nci-H460 = experiment: 72-h MTT cytotoxicity assay, Nci-H460; assay type: cell-based; conditions: Homo sapiens, Nci-H460, Large cell lung carcinoma, read-out: Anti-proliferative activity, 72-h MTT IC50
Protocol: (§1) Representative bisarylsulfonamide compounds were tested on a panel of transformed and non-transformed human cell lines, using a standard 72-h MTT cytotoxicity assay [Haselsberger K et al, ibid].

H1299 = experiment: 72-h MTT cytotoxicity assay, H1299; assay type: cell-based; conditions: Homo sapiens
Method in brief: (§2)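 Compounds were incubated with three human tumour lines chosen for genetic contrast, then viability was scored by MTT reduction. AGS is gastric with intact p53, SJSA-1 is bone sarcoma bearing intact p53 and amplified HDM2 expression, and H1299 is lung carcinoma without p53.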

Messa-Dx5 = experiment: 72-h MTT cytotoxicity assay, Messa-Dx5; assay type: cell-based; conditions: Homo sapiens, MES-SA/Dx5, 72 h; Messa-Dx5, Uterus sarcoma; read-out: Anti-proliferative activity, 72-h MTT IC50
Protocol: as §1

HCT116 = experiment: 72-h MTT cytotoxicity assay, HCT116; assay type: cell-based; conditions: Homo sapiens, HCT-116, 72 h; HCT116, Colon carcinoma; read-out: Anti-proliferative activity, 72-h MTT IC50
Protocol: as §1

Messa = experiment: 72-h MTT cytotoxicity assay, Messa; assay type: cell-based; conditions: Homo sapiens, MES-SA, Uterus sarcoma, read-out: Anti-proliferative activity, 72-h MTT IC50
Protocol: as §1

[2] = system: non-transformed human cell lines; experiment: 72-h MTT panel, average non-transformed; assay type: cell-based; conditions: average over non-transformed cell lines, read-out: Anti-proliferative activity, 72-h MTT IC50, Average non-transformed
Protocol: as §1
(§3) This differential selectivity further supports the notion that the bisarylsulfonamides modulate cellular HDM2 function. It is known that HDM2 amplification is particularly common in soft tissue sarcomas and osteosarcomas [Momand J et al, ibid; Bartel F, Meye A, Wurl P, Kappler M, Bache M, Lautenschlager C, Grunbaum U, Schmidt H, Taubert H; Int. J. Cancer 2001; 95: 168-175].

sarcoma cell lines = experiment: 72-h MTT panel, average sarcomas; assay type: cell-based; conditions: Homo sapiens, average over sarcoma cell lines, read-out: Anti-proliferative activity, 72-h MTT IC50, Average sarcomas
Protocol: as §1, §3

SK-N-MC = experiment: 72-h MTT cytotoxicity assay, SK-N-MC; assay type: cell-based; conditions: Homo sapiens, Neuriepithelioma, read-out: Anti-proliferative activity, 72-h MTT IC50
Protocol: as §1

Saos-2 = experiment: 72-h MTT cytotoxicity assay, Saos-2; assay type: cell-based; conditions: Homo sapiens, Saos-2, Osteosracoma, read-out: Anti-proliferative activity, 72-h MTT IC50
Protocol: as §1

AGS = experiment: 72-h MTT cytotoxicity assay, AGS; assay type: cell-based; conditions: Homo sapiens
Method in brief: as §2

HDM2 = biological target: T1, HDM2 (Homo sapiens, UniProt Q00987); experiment: Fluorescence polarisation competitive HDM2 binding assay
T1 construct: Recombinant HDM2 (1.5 μg per well) in TBS-BSA buffer
Method in brief: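 Recombinant HDM2 (1.5 μg/well) was preincubated 5 min at room temperature with serially diluted compound in 50 mM Tris pH 7.4, 150 mM NaCl, 0.1% BSA, 5% DMSO final. Fluorescein-labelled p53 peptide (0.2 μM) was then added for 45 min. Polarisation was read at 485/520 nm and IC50 derived from dose-response curves.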

[3] = system: transformed human cell lines; experiment: 72-h MTT panel, average transformed; assay type: cell-based; conditions: average over transformed cell lines, read-out: Anti-proliferative activity, 72-h MTT IC50, Average transformed
Protocol: as §1, §3

MCF7 = experiment: 72-h MTT cytotoxicity assay, MCF7; assay type: cell-based; conditions: Homo sapiens, MCF7, Breast adenocarcinoma, read-out: Anti-proliferative activity, 72-h MTT IC50
Protocol: as §1

p53 = p53 reporter gene assay (U2OS-derived luciferase reporter cell line); conditions: for Fold induction of luciferase activity: compared to basal luciferase activity, 16-h time point, at concentration of maximal induction; for Concentration (test compound concentration at which the p53 induction was maximal): p53 reporter, U2OS-derived cell line
Protocol: A dual assay assessing both cell viability and p53 response was employed. A U2OS-derived cell line stably transfected with a p53 response element and a luciferase reporter gene was created. […] After seeding of cells into 96-well tissue culture plates, treatment with test compounds, and incubation for the desired duration, the cell proliferation reagent WST-1 (Roche Molecular Biochemicals) was used to determine cell viability. The Bright-Glo™ Luciferase Assay System (Promega) was used to measure luciferase activity. The data from the cell viability assay was used to normalise data from the luciferase assay.

Lovo = experiment: 72-h MTT cytotoxicity assay, Lovo; assay type: cell-based; conditions: Homo sapiens, Colon adenocarcinoma, read-out: Anti-proliferative activity, 72-h MTT IC50
Protocol: as §1

carcinoma cell lines = experiment: 72-h MTT panel, average carcinomas; assay type: cell-based; conditions: Homo sapiens, average over carcinoma cell lines, read-out: Anti-proliferative activity, 72-h MTT IC50, Average carcinomas
Protocol: as §1, §3

HT29 = experiment: 72-h MTT cytotoxicity assay, HT29; assay type: cell-based; conditions: Homo sapiens, HT-29, 72 h; HT29, Colon adenocarcinoma; read-out: Anti-proliferative activity, 72-h MTT IC50
Protocol: as §1

NaCat = experiment: 72-h MTT cytotoxicity assay, NaCat; assay type: cell-based; conditions: Keratinocyte, Human keratinocytes, read-out: Anti-proliferative activity, 72-h MTT IC50
Protocol: as §1

WI38 = experiment: 72-h MTT cytotoxicity assay, WI38; assay type: cell-based; conditions: Homo sapiens, WI-38, 72 h; WI38, Lung fibroblasts; read-out: Anti-proliferative activity, 72-h MTT IC50
Protocol: as §1

[4] = after 3-h treatment with test compounds, read-out: IC50 E2F reporter, Non-synchronised cells
[5] = NCI-H1299, 72 h, H1299, Large cell lung carcinoma, Table 2, read-out: Anti-proliferative activity, 72-h MTT IC50
[6] = NCI-H1299, 72-h MTT, Table 1, read-out: IC50 Anti-proliferative effect on cell line H 1299
[7] = 72-h MTT, Table 1, read-out: IC50 Anti-proliferative effect on cell line AGS
[8] = 72 h, Gastric adenocarcinoma, Table 2, read-out: Anti-proliferative activity, 72-h MTT IC50
[9] = fluorescence polarisation assay, Table 3, read-out: In vitro competitive HDM2 binding assay IC50
[10] = fluorescence polarisation format, Table 1, read-out: IC50 In vitro competitive HDM2 binding assay
[11] = after 3-h treatment, synchronisation with 0.3 mM mimosine for 24 h, followed by wash-out, read-out: IC50 E2F reporter, Synchronised cells

T1 sequence (Q00987 whole entry): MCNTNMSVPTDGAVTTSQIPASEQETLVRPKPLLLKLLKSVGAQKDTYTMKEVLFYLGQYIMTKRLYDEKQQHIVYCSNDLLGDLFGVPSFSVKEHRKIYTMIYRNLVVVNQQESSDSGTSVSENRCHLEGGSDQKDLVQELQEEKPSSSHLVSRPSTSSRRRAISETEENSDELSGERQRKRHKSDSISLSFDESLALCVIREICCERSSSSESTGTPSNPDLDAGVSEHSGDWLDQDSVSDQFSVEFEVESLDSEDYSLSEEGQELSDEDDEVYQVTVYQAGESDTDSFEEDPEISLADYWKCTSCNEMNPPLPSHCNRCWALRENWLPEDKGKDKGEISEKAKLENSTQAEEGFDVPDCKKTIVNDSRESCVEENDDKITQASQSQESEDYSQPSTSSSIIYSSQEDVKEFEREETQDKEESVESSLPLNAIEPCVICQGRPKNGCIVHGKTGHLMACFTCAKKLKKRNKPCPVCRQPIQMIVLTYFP

Row | SMILES | IC50 [1, 4] | IC50 (Nci-H460) | IC50 (H1299; [5]) | IC50 (H1299; [6]) | IC50 (Messa-Dx5) | IC50 (HCT116) | IC50 (Messa) | IC50 [2] | IC50 (sarcoma cell lines) | IC50 (SK-N-MC) | IC50 (Saos-2) | IC50 (AGS; [7]) | IC50 (AGS; [8]) | IC50 (HDM2; [9]) | IC50 (HDM2; [10]) | IC50 [3] | IC50 (MCF7) | Fold induction of luciferase activity (p53) | Concentration (test compound concentration at which the p53 induction was maximal) (p53) | IC50 (Lovo) | other results
1 | O=[N+]([O-])c1cc(S(=O)(=O)Nc2ccc(Cl)cc2)sc1Cl [Compound 2, 5-Chloro-4-nitrothiophene-2-sulfonic acid (4-chlorophenyl)-amide] | 23.2 ± 4 µM | 3.3 µM | 4.4 µM | 5.1 ± 0.7 µM | 9.5 µM | 2.8 µM | 13.1 µM | 21 ± 3.1 µM | 10.2 ± 2.7 µM | 3 µM | 9.5 µM | 1.1 ± 0.2 µM | 1.2 µM | 26.4 ± 3.4 µM | 26.4 ± 3.4 µM | 5.7 ± 3.9 µM | 2.7 µM | 231 fold | 6 µM | 2.1 µM | IC50 (H1299; NCI-H1299, H1299, Example 9, read-out: anti-proliferative IC50 concentration determined for each cell line): 5 µM; IC50 (AGS; Example 9, read-out: anti-proliferative IC50 concentration determined for each cell line): 1 µM; IC50 (carcinoma cell lines): 3.1 ± 1.2 µM; IC50 (HT29): 2.1 µM; IC50 (NaCat): 9.3 µM; IC50 (WI38): 22.7 µM
2 | O=[N+]([O-])c1cc(S(=O)(=O)Nc2ccc(F)cc2)sc1Cl [Compound 3, 5-Chloro-4-nitrothiophene-2-sulfonic acid (4-fluorophenyl)amide] | 28.8 ± 2.3 µM | 5.2 µM | 5.2 µM | 5.7 ± 0.4 µM | 12.1 µM | 3.5 µM | 18.3 µM | 18.7 ± 3.1 µM | 12.1 ± 3.8 µM | 3.8 µM | 8.9 µM | 1.5 ± 0.3 µM | 1.7 µM | 41.9 ± 5.8 µM | 41.9 ± 5.8 µM | 6.9 ± 5 µM | 1.9 µM | 200 fold | 6 µM | 2.3 µM | IC50 [1, 11]: 69 ± 30 µM; IC50 (carcinoma cell lines): 3.8 ± 1.8 µM; IC50 (HT29): 2.3 µM; IC50 (NaCat): 10.5 µM; IC50 (WI38): 21.1 µM
3 | O=[N+]([O-])c1cc(S(=O)(=O)Nc2ccc(C(F)(F)F)cc2)sc1Cl [Compound 6, 5-Chloro-4-nitrothiophene-2-sulfonic acid (4-trifluoromethylphenyl)amide] | 37.5 ± 12.9 µM | 8 µM | 4.9 µM | 8.1 ± 1.3 µM | 15.5 µM | 6 µM | 16 µM | 27.1 ± 4.9 µM | 13.7 ± 3.1 µM | 2.9 µM | 12 µM | 2 ± 0.3 µM | 2.2 µM | 20.4 ± 1.4 µM | 20.4 ± 1.4 µM | 8.4 ± 5.1 µM | 3.3 µM | 84 fold | 5.5 µM | 3.9 µM | IC50 [1, 11]: 39 µM; IC50 (carcinoma cell lines): 4.9 ± 2.3 µM; IC50 (HT29): 3.5 µM; IC50 (NaCat): 10.6 µM; IC50 (WI38): 30 µM

Source: patent publication US20050215548A1 (Cyclacel Limited, priority 2002, published 2005)
